Results as given in patent US20250282799A1, “SUBSTITUTED PYRIDO[4,3-d]PYRIMIDINES AS KRAS MODULATORS” (Alterome Therapeutics, Inc., priority 2023, published 2025).

System: KRAS G12V dependent lung adenocarcinoma cell line, NCI-H441
Experiment: Cellular pERK (Thr202/Tyr204) FRET/HTRF assay
Type: cell-based
Conditions: Homo sapiens
Summary of the method: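 Phospho-ERK1/2 (Thr202/Tyr204) quantified by two-antibody HTRF in lysed NCI-H441 cells. Cells seeded overnight, treated with test compounds for 1 hr at 37 °C against DMSO control, then lysed and detected at room temperature; IC50 obtained by curve fitting.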

[1] = NCI-H441, cellular pERK (Thr202/Tyr204) HTRF, NCI-H441 cells
[2] = NCI-H441, cellular pERK HTRF, NCI-H441 (KRAS G12V) cells

Row | IC50 [1] [µM] | IC50 [2] [µM] | Compound
1 | – | < 0.05 | C#Cc1c(F)ccc2cc(N)cc(-c3ncc4c(N5CCOCC6C(Cl)C65)nc(OC[C@]56CC(=C)CN5CCC65CC5)nc4c3C)c12 (stereo partly drawn) [Example 444, 4-(4-(8-chloro-5-oxa-2-azabicyclo[5.1.0]octan-2-yl)-8-methyl-2-(((R)-6′-methylenetetrahydrospiro[cyclopropane-1,1′-pyrrolizin]-7a′(5′H)-yl)methoxy)pyrido[4,3-d]pyrimidin-7-yl)-5-ethynyl-6-fluoronaphthalen-2-amine]
2 | – | < 0.05 | [2H]C([2H])(Oc1nc(N2CCOC[C@H]3[C@H](F)[C@H]32)c2cnc(-c3cc(O)cc4ccc(F)c(C#C)c34)c(C)c2n1)[C@@]12CCCN1C[C@H](F)C2 [Example 445, 5-Ethynyl-6-fluoro-4-(4-((1S,7S,8S)-8-fluoro-5-oxa-2-azabicyclo[5.1.0]octan-2-yl)-2-(((2R,7aS)-2-fluorotetrahydro-1H-pyrrolizin-7a(5H)-yl)methoxy-d2)-8-methylpyrido[4,3-d]pyrimidin-7-yl)naphthalen-2-ol]
3 | – | < 0.05 | [2H]C([2H])(Oc1nc(N2CCOC[C@H]3[C@H](F)[C@H]32)c2cnc(-c3cc(O)cc4ccc(F)c(C#C)c34)c(C)c2n1)[C@@]12CCCN1CC(=C)C2 [Example 446, 5-Ethynyl-6-fluoro-4-(4-((1S,7S,8S)-8-fluoro-5-oxa-2-azabicyclo[5.1.0]octan-2-yl)-8-methyl-2-(((S)-2-methylenetetrahydro-1H-pyrrolizin-7a(5H)-yl)methoxy-d2)pyrido[4,3-d]pyrimidin-7-yl)naphthalen-2-ol]
4 | – | < 0.05 | C#Cc1c(F)ccc2cc(O)cc(-c3ncc4c(N5CCOC[C@H]6[C@H](F)[C@H]65)nc(OC[C@@]56CCCN5C/C(=C/F)C6)nc4c3C)c12 [Example 447, 5-ethynyl-6-fluoro-4-(4-((1S,7S,8S)-8-fluoro-5-oxa-2-azabicyclo[5.1.0]octan-2-yl)-2-(((S,E)-2-(fluoromethylene)tetrahydro-1H-pyrrolizin-7a(5H)-yl)methoxy)-8-methylpyrido[4,3-d]pyrimidin-7-yl)naphthalen-2-ol]
5 | – | < 0.05 | [2H]C([2H])(Oc1nc(N2CCOC[C@H]3[C@H](F)[C@H]32)c2cnc(-c3cc(O)cc4ccc(F)c(C#C)c34)c(C)c2n1)[C@]12CC(=C)CN1CCC21CC1 [Example 448, 5-Ethynyl-6-fluoro-4-(4-((1S,7S,8S)-8-fluoro-5-oxa-2-azabicyclo[5.1.0]octan-2-yl)-8-methyl-2-(((R)-6′-methylenetetrahydrospiro[cyclopropane-1,1′-pyrrolizin]-7a′(5′H)-yl)methoxy-d2)pyrido[4,3-d]pyrimidin-7-yl)naphthalen-2-ol]
6 | – | < 0.05 | C#Cc1c(F)ccc2cc(O)cc(-c3ncc4c(N5CCOC[C@H]6[C@H](F)[C@H]65)nc(OC[C@]56C/C(=C/F)CN5CCC65CC5)nc4c3C)c12 [Example 449, 5-ethynyl-6-fluoro-4-(4-((1S,7S,8S)-8-fluoro-5-oxa-2-azabicyclo[5.1.0]octan-2-yl)-2-(((R,Z)-6′-(fluoromethylene)tetrahydrospiro[cyclopropane-1,1′-pyrrolizin]-7a′(5′H)-yl)methoxy)-8-methylpyrido[4,3-d]pyrimidin-7-yl)naphthalen-2-ol]
7 | – | 0.5 to 10 | [2H]C([2H])(Oc1nc(N2CCOC[C@H]3[C@H](F)[C@H]32)c2cnc(-c3cc(N)cc4ccc(F)c(C#C)c34)c(C3CC3)c2n1)[C@@]12CCCN1C[C@H](F)C2 [Example 452, 4-(8-cyclopropyl-4-((1S,7S,8S)-8-fluoro-5-oxa-2-azabicyclo[5.1.0]octan-2-yl)-2-(((2R,7aS)-2-fluorotetrahydro-1H-pyrrolizin-7a(5H)-yl)methoxy-d2)pyrido[4,3-d]pyrimidin-7-yl)-5-ethynyl-6-fluoronaphthalen-2-amine]

More lines, now with the values behind:

Row | Compound | IC50 [1] [µM] | IC50 [2] [µM]
8 | C#Cc1c(F)ccc2cc(N)cc(-c3ncc4c(N5CCOC[C@H]6[C@H](F)[C@H]65)nc(OC[C@]56C/C(=C\F)CN5CCC65CC5)nc4c3C)c12 [Example 430, 5-ethynyl-6-fluoro-4-(4-((1S,7S,8S)-8-fluoro-5-oxa-2-azabicyclo[5.1.0]octan-2-yl)-2-(((R,E)-6-(fluoromethylene)tetrahydrospiro[cyclopropane-1,1′-pyrrolizin]-7a′(5′H)-yl)methoxy)-8-methylpyrido[4,3-d]pyrimidin-7-yl)naphthalen-2-amine] | < 0.05 | –
9 | C#Cc1c(F)ccc2cc(N)cc(-c3ncc4c(N5CCOC[C@H]6[C@H](F)[C@H]65)nc(OC[C@]56C/C(=C/F)CN5CCC65CC5)nc4c3C)c12 [Example 431, 5-Ethynyl-6-fluoro-4-(4-((1S,7S,8S)-8-fluoro-5-oxa-2-azabicyclo[5.1.0]octan-2-yl)-2-(((R,Z)-6′-(fluoromethylene)tetrahydrospiro[cyclopropane-1,1′-pyrrolizin]-7a′(5′H)-yl)methoxy)-8-methylpyrido[4,3-d]pyrimidin-7-yl)naphthalen-2-amine] | < 0.05 | –
10 | [2H]C([2H])(Oc1nc(N2CCOC[C@H]3[C@H](F)[C@H]32)c2cnc(-c3cc(N)cc4ccc(F)c(C#C)c34)c(C)c2n1)[C@@]12CCCN1CC(=C)C2 [Example 436, 5-Ethynyl-6-fluoro-4-(4-((1S,7S,8S)-8-fluoro-5-oxa-2-azabicyclo[5.1.0]octan-2-yl)-8-methyl-2-(((S)-2-methylenetetrahydro-1H-pyrrolizin-7a(5H)-yl)methoxy-d2)pyrido[4,3-d]pyrimidin-7-yl)naphthalen-2-amine] | – | < 0.05
11 | C#Cc1c(F)ccc2cc(N)cc(-c3ncc4c(N5CCOC[C@H]6[C@H](F)[C@H]65)nc(OC[C@]56CC(=C(F)F)CN5CCC65CC5)nc4c3C)c12 [Example 437, 4-(2-(((R)-6′-(difluoromethylene)tetrahydrospiro [cyclopropane-1,1′-pyrrolizin]-7a′(5′H)-yl)methoxy)-4-((1S,7S,8S)-8-fluoro-5-oxa-2-azabicyclo[5.1.0]octan-2-yl)-8-methylpyrido[4,3-d]pyrimidin-7-yl)-5-ethynyl-6-fluoronaphthalen-2-amine] | – | < 0.05
12 | [2H]C([2H])(Oc1nc(N2CCOC[C@H]3[C@H](F)[C@H]32)c2cnc(-c3cc(N)cc4ccc(F)c(C#C)c34)c(C)c2n1)[C@]12CC(=C)CN1CCC21CC1 [Example 442, 5-Ethynyl-6-fluoro-4-(4-((1S,7S,8S)-8-fluoro-5-oxa-2-azabicyclo[5.1.0]octan-2-yl)-8-methyl-2-(((R)-6′-methylenetetrahydrospiro[cyclopropane-1,1′-pyrrolizin]-7a′(5′H)-yl)methoxy-d2)pyrido[4,3-d]pyrimidin-7-yl)naphthalen-2-amine] | – | < 0.05
13 | C#Cc1c(F)ccc2cc(N)cc(-c3ncc4c(N5CCOCC6C(Cl)C65)nc(OC[C@@]56CCCN5CC(=C)C6)nc4c3C)c12 (stereo partly drawn) [Example 443, 4-(4-(8-chloro-5-oxa-2-azabicyclo[5.1.0]octan-2-yl)-8-methyl-2-(((S)-2-methylenetetrahydro-1H-pyrrolizin-7a(5H)-yl)methoxy)pyrido[4,3-d]pyrimidin-7-yl)-5-ethynyl-6-fluoronaphthalen-2-amine] | – | < 0.05
